Test results published in patent US8324166B2, “Neuroprotection using NAP-like and SAL-like peptide mimetics” (Ramot at Tel-Aviv University, Ltd., priority 2007, dated 2012).
Where “and” joins values, the source holds several entries; their conditions need not be identical. Equal values may be shown once. Ends that are not written are not given here.

Assays:
[1] = in vivo; cited from earlier work
[2] = test system: closed head injury in mice; details: cited from earlier work
[3] = test system: animal models simulating parts of the Alzheimer's disease pathology; details: in vivo; cited from earlier work
[4] = target: beta III tubulin (Homo sapiens, UniProt Q13509); details: affinity chromatography; cited from earlier work
beta III tubulin, sequence (Q13509 whole entry): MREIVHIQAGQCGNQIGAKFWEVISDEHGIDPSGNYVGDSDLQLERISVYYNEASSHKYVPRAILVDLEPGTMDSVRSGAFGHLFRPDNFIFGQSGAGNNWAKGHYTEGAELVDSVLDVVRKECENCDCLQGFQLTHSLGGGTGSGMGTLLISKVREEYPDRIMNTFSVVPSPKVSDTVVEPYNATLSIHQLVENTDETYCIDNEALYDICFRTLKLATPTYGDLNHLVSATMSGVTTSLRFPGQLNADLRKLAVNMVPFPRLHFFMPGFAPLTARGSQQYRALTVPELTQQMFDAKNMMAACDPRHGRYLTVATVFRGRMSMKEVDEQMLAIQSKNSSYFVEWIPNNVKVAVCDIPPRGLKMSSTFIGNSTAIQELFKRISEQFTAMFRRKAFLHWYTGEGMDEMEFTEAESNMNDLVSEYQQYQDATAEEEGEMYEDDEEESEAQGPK
beta III tubulin, sequence (Q71U36 whole entry partner): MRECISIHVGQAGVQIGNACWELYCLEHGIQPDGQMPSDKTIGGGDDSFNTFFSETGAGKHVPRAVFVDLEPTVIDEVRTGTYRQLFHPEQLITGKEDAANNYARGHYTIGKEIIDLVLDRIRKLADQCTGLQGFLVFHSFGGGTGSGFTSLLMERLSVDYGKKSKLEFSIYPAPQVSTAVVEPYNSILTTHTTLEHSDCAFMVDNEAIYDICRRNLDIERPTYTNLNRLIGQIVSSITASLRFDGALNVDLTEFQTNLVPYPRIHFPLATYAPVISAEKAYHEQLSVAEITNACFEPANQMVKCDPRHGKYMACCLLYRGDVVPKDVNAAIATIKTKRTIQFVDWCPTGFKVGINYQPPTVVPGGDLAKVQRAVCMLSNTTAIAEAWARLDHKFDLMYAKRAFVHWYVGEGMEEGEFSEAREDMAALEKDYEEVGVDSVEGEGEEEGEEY

[5] = test system: ischemic injury; details: after ischemic injury; cited from earlier work
[6] = test system: model of fetal alcohol syndrome; details: in vivo, ip; cited from earlier work
[7] = test system: normal aging rats; details: intranasal administration; cited from earlier work
[8] = test system: cell cultures exposed to a wide variety of toxins; details: against a wide variety of toxins; cited from earlier work
[9] = test system: neurons of the central nervous system; details: in vitro assays and in vivo disease models; cited from earlier work
[10] = test system: cerebral cortical astrocytes intoxicated with ZnCl2; experiment: MTS assay: survival of astrocytes following intoxication with ZnCl2; type: cell-based, mice
Procedure: Cell cultures were prepared as previously described (McCarthy KD, de Vellis J., J. Cell Biol., 85:890-902 (1980); Gozes I et al., J. Pharmacol. Exp. Ther., 257:959-66 (1991)). Newborn mice (Harlan Biotech Israel Ltd., Rehovot, Israel) were sacrificed by decapitation and the brain was removed. The cortex was dissected and meninges were removed. The tissue was minced with scissors and placed in Hank's balanced salts solution X1 (HBSS, Biological Industries, Beit Haemek, Israel), 15 mM HEPES Buffer pH 7.3 (Biological Industries, Beit Haemek, Israel) and 0.25% trypsin (Biological Industries, Beit Haemek, Israel) in an incubator at 37° C. 10% CO2 for 20 minutes. The cells were then placed in 8 ml of solution D1 containing 10% heat inactivated fetal calf serum (Biological Industries, Beit Haemek, Israel), 0.1% gentamycin sulphate solution (Biological Industries, Beit Haemek, Israel) and 0.1% penicillin-streptomycin-nystatin solution (Biological Industries, Beit Haemek, Israel) in Dulbecco's modified Eagle's medium (DMEM, Sigma, Rehovot, Israel). The cells were allowed to settle, and were then transferred to a new tube containing 2.5 ml of D1 and triturated using a Pasteur pipette. The process was repeated twice more. Once all the cells were suspended, cell density was determined using a hemocytometer (Neubauer improved, Germany) and 1×10^6 cells/15 ml D1 were inoculated into each 75 cm^2 flask (Corning, Corning, N.Y., USA). Cells were incubated at 37° C. 10% CO2. The medium was changed after 24 hours and cells were grown until confluent (one week).
The flasks containing the cerebral cortical astrocytes were shaken to dislodge residual neurons and oligodendrocytes that may be present. Flasks were then washed with 10 ml cold HBSSx1, HEPES15 mM. 5 ml versene-trypsin solution (BioLab, Jerusalem, Israel) was added to each flask and the flasks were incubated at room temperature for 5 minutes to remove astrocytes. The flasks were then shaken to dislodge the cells. The versene-trypsin solution was neutralized with 5 ml D1. The cell suspension was collected and centrifuged at 100 g for 10 minutes. The supernatant was removed and the cells resuspended in D1. The cells were plated in 96 well plates (Corning, Corning, N.Y., USA) (each flask to 2 plates) and incubated until confluent at 37° C. 10% CO2.
The survival of astrocytes following intoxication with ZnCl2 was tested using the MTS assay. One week after sub-culturing the astrocytes into 96-well plates, the astrocyte growth medium was aspirated and fresh medium containing 200μM ZnCl2 and ascending concentrations of NATLSHIHQ (SEQ ID NO:4) or STPTAIPQ (SEQ ID NO:6)(concentration range: 10^−16-10^−7M) was added to the cells. The cells were incubated for 4 hours in 10% CO2 at 37°C., followed by an MTS assay using Celltiter 96 Aqueous non-radioactive cell proliferation assay (Promega, Madison, WI, USA) which was performed according to the manufacturer's instructions and read in an ELISA plate reader at 490nm.

[11] = test system: neurons in mixed neuroglial cultures intoxicated with beta-amyloid 1-42; experiment: MAP2 assay: neuronal survival in mixed neuroglial cultures following beta-amyloid intoxication; type: cell-based, rat
Procedure: Newborn rats were used to prepare cerebral cortical astrocytes cell cultures as described above. After suspending the cells in D1, they were centrifuged at 100 g for 5 minutes and the supernatant discarded. The cell pellet was resuspended in solution D2 containing 5% heat inactivated horse serum (Biological Industries, Beit Haemek, Israel), 0.1% gentamycin, 0.1% penicillin-streptomycin-nystatin, 1% N3 (defined medium components essential for neuronal development in culture, (Romijn HJ, Brain Res., 254:583-9 (1981)]), 15 μg/ml 5′-fluoro-2-deoxyuridine (FUDR, Sigma, Rehovot, Israel), and 3 μg/ml uridine (Sigma, Rehovot, Israel) in DMEM. Cells were counted in a hemocytometer, diluted in D2 and 17,000 cells/well/96 well plate were seeded on 8-day-old astrocytes prepared as described above. The medium was changed the next day to D2 without FUDR and uridine. Cells were allowed to grow for one week at 37° C. 10% CO2 before experiments were performed.
Neuronal survival in neuroglial cultures following beta-amyloid intoxication was assayed using the neuron specific antibody, MAP2. […] The cells were incubated for 5 days in 10% CO2 at 37°C.
5 days after the addition of beta-amyloid and the peptide, the cells were fixed by removing the media from each well and the addition of cold methanol. The cells were left in the refrigerator overnight. The cells were immunostained with anti-MAP2 as previously described (Brooke S M et al., Neurosci. Lett., 267:21-4(1999)): the methanol was removed and the cells were washed 4 times with phosphate buffered saline (PBS). Blocking for non-specific antibody binding was performed by incubating the cells in 5% non-fat milk in PBS overnight at 4° C. The blocking solution was then removed and anti-MAP2(1:1000; Sigma, Rehovot, Israel) was added to each well. The cells were incubated for 30 minutes at room temperature, followed by 4 washes with PBS. Biotinylated anti-mouse IgG (1:200, Vector Laboratories, Burlingame, Calif., USA) was then added to each well, and the cells were incubated for 30 minutes at room temperature followed by 4 washes with PBS. The cells were incubated at room temperature for 30 minutes with the ABC reagent (Vector Laboratories, Burlingame, Calif., USA) prepared according to the manufacturer's protocol and then washed 4 times with PBS. ABTS reagent, prepared according to the manufacturer's protocol (Vector Laboratories, Burlingame, Calif., USA) was then added to each well and the cells were incubated for 20 minutes in the dark at room temperature. The plates were read in an ELISA plate reader at 405nm. As blanks, wells containing untreated cells and no primary antibody were used.

## Asn-Ala-Pro-Val-Ser-Ile-Pro-Gln [NAP]
[1]
  crossing of the blood-brain barrier: can cross the blood-brain barrier
[2]
  damage caused by closed head injury: reducing damage
[3]
  protection in Alzheimer's disease models: protective
[4]
  interaction with tubulin: specifically interact with beta III tubulin
[5]
  infarct volume and motor function deficits: reduced infarct volume and motor function deficits
[6]
  fetal death after intraperitoneal injection of alcohol: inhibited
[7]
  performance in the Morris water maze: improved performance
[8]
  neuroprotective activity in cell cultures: neuroprotective activity at femtomolar concentrations

## SALLRSIPA
[9]
  neuron survival in response to various insults: keep neurons of the central nervous system alive

## STPTAIPQ (synthetic NAP-like peptide)
[10]; MTS assay, 4 hours, tested 10^−16-10^−7M, significance vs negative control in cell
  effective concentrations on astrocyte survival: Astrocytes (200 μM ZnCl2): 10^−7 (p < 0.05) M
[10]; astrocytes, ZnCl2
  activity in neuroprotection assay: active
[11]; MAP2 assay, 5 days, tested 10^−19M to 10^−5M, significance vs negative control in cell
  effective concentrations on neuronal survival: Neurons (25 μM beta-amyloid): 10^−13 M and 10 ^−5 M
[11]; neuroglial cells, beta-amyloid
  activity in neuroprotection assay: active
